{"source": "paper PMC3289549", "about": "(Biochemistry, 2011)", "key": {"Pin1 [1]": {"molecular_target": "T1, Pin1 (Homo sapiens, UniProt Q13526)", "T1 sequence (Q13526 whole entry)": "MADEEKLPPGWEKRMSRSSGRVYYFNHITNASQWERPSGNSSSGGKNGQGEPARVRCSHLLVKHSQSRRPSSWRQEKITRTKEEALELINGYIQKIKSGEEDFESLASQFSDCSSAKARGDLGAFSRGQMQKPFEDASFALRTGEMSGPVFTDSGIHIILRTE", "assay": "α-chymotrypsin protease-coupled Pin1 inhibition assay", "assay_type": "biochemical", "details": "for IC50: protease-coupled assay, substrate succinyl–Ala–Glu–cis-Pro–Phe–pNA, 4 °C, duplicate"}, "Aqueous solubility": {"assay": "Aqueous solubility", "assay_type": "physicochemical", "details": "qualitative"}, "Pin1 [2]": {"molecular_target": "T1, Pin1", "details": "cited from earlier work"}, "Pin1 [3]": {"molecular_target": "T1, Pin1", "details": "cited from earlier work", "remark": "listed apart in the source"}}, "note": "Entries after “also recorded” stand apart in the source; their conditions may differ. Like-named read-outs stand apart in the source and are kept apart here."}
{"molecule": "CC(=O)N[C@@H](COP(=O)(O)O)CN1CCCCC1C(=O)NCCc1c[nH]c2ccccc12", "note": "(mixture of isomers) [Compound 4a, Ac–pSer–Ψ[CH2N]-(R/S)Pip ^a–tryptamine]", "values": [{"measurement": "IC50", "setting": "Pin1 [1]", "result": "16 ± 2", "unit": "µM"}, {"measurement": "fold more potent than diastereomer 4b", "setting": "Pin1 [1]; ratio of IC50 values vs 4b", "result": "approximately 12 fold"}]}
{"molecule": "CC(=O)N[C@@H](COP(=O)(O)O)CN1CCCCC1C(=O)NCCc1c[nH]c2ccccc12", "note": "(mixture of isomers) [Compound 4b, Ac–pSer–Ψ[CH2N]-(R/S)Pip ^a–tryptamine]", "values": [{"measurement": "IC50", "setting": "Pin1 [1]", "result": "189 ± 17", "unit": "µM"}]}
{"molecule": "O=C(N[C@@H](COP(=O)(O)O)CN1CCC[C@H]1C(=O)NCCc1c[nH]c2ccccc12)OCC1c2ccccc2-c2ccccc21", "note": "[Compound 1, Fmoc–pSer–Ψ[CH2N]-Pro–tryptamine]", "values": [{"measurement": "aqueous solubility", "setting": "Aqueous solubility", "result": "very poor"}, {"measurement": "IC50", "setting": "Pin1 [1]", "result": "6.3 ± 0.4", "unit": "µM"}, {"measurement": "fold better inhibition than compound 3", "setting": "Pin1 [1]; ratio of IC50 values vs 3", "result": 5, "unit": "fold"}]}
{"molecule": "CC(OP(=O)(O)O)C(CN1CCCC1C(=O)NCCc1c[nH]c2ccccc12)NC(=O)OCC1c2ccccc2-c2ccccc21", "note": "(stereo not shown) [Compound 3, Fmoc–pThr–Ψ[CH2N]-Pro–tryptamine]", "values": [{"measurement": "IC50", "setting": "Pin1 [1]", "result": "30 ± 2", "unit": "µM"}]}
{"molecule": "O=C(NC(C=C1CCCC1C(=O)NCCc1c[nH]c2ccccc12)COP(=O)(O)O)OCC1c2ccccc2-c2ccccc21", "note": "(stereo not shown) [Fmoc-pSer–Ψ[(Z)CH=C]Pro–2-(indol-3-yl)-ethylamine]", "values": [{"measurement": "IC50", "setting": "Pin1 [2]; similarly substituted ground-state (cis-alkene) analogue", "result": 28.3, "unit": "µM"}]}
{"molecule": "Ac–Lys(N-biotinoyl)–Ala–Ala–Bth–D-Thr(PO3H2)–Pip–Nal–Gln–NH2", "values": [{"measurement": "Ki", "setting": "Pin1 [3]", "result": 0.00021, "unit": "µM"}]}
{"molecule": "Ac–pSer–Ψ[CH2N]-Pro–tryptamine [Compound 2]", "values": [{"measurement": "aqueous solubility", "setting": "Aqueous solubility", "result": "improved aqueous solubility; also recorded: improved the water solubility"}, {"measurement": "IC50", "setting": "Pin1 [1]", "result": "12 ± 2", "unit": "µM"}, {"measurement": "fold less potent than inhibitor 1", "setting": "Pin1 [1]; ratio of IC50 values vs 1", "result": 2, "unit": "fold"}, {"measurement": "fold better than the similarly substituted ketone", "setting": "Pin1 [1]; ratio of IC50 values vs Ac–pSer–Ψ[COCH]-Pip–2-(indol-3-yl)-ethylamine", "result": 5, "unit": "fold"}, {"measurement": "fold better than the similarly substituted α-ketoamide inhibitor", "setting": "Pin1 [1]; ratio of IC50 values vs Ac–pSer–Ψ[COCON]-Pro–2-(naphth-2-yl)-ethylamine", "result": 6, "unit": "fold"}]}
{"molecule": "Ac–pSer–Ψ[COCH]-Pip–2-(indol-3-yl)-ethylamine", "values": [{"measurement": "IC50", "setting": "Pin1 [2]; similarly substituted ketone", "result": 61, "unit": "µM"}]}
{"molecule": "Ac–pSer–Ψ[COCON]-Pro–2-(naphth-2-yl)-ethylamine", "values": [{"measurement": "IC50", "setting": "Pin1 [2]; similarly substituted α-ketoamide inhibitor", "result": 100, "unit": "µM"}]}
